Results reported in the supplement of paper PMC10883282.

Experiments:
Assay in all cases: relative viability vs DMSO control (72 h) (fraction); higher = more viable cells
[1] = system: SW872
Outline: (§1)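 A 5 µM positive control and 0.1% DMSO vehicle ran alongside sarcoma cell lines seeded in 384-well plates to reach 80–90% confluence. Serially diluted compound, 2.5 µl from source plates of 10 mM to 0.0002 mM, was added after 24 h, and the plates were held 72 h at 37 °C, 5% CO2. Relative viability was worked out from ATPLite readings as percent growth averaged over up to triplicate wells. The values were rescaled so that 1 is full and 0 is none.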

[2] = system: KHOS-240S
Outline: as §1

[3] = system: SK-LMS-1
Outline: as §1

[4] = system: SW1353
Outline: as §1

[5] = system: RD-ES
Outline: as §1

[6] = system: HT1080
Outline: as §1

[7] = system: RD
Outline: as §1

[8] = system: SYO-1
Outline: as §1

[9] = system: G401
Outline: as §1

[10] = system: HS729
Outline: as §1

[11] = system: SW684
Outline: as §1

[12] = system: KHOS-NP
Outline: as §1

Cn1cc(C2=C(c3cn(C4CCN(Cc5ccccn5)CC4)c4ccccc34)C(=O)NC2=O)c2ccccc21 [Enzastaurin]
Details	relative viability
[1], 0.00017 µM	1.07
[1], 0.00051 µM	1.09
[1], 0.00152 µM	1.08
[1], 0.00457 µM	1.06
[1], 0.01372 µM	1.01
[1], 0.04115 µM	1.08
[1], 0.1235 µM	1.04
[1], 0.3704 µM	1.09
[1], 1.111 µM	1.05
[1], 3.333 µM	1.06
[1], 10 µM	0.96
[2], 0.00017 µM	1.06
[2], 0.00051 µM	1.1
[2], 0.00152 µM	1.08
[2], 0.00457 µM	1.09
[2], 0.01372 µM	1.1
[2], 0.04115 µM	1.09
[2], 0.1235 µM	1.07
[2], 0.3704 µM	1.08
[2], 1.111 µM	1.08
[2], 3.333 µM	1.01
[2], 10 µM	0.732
[3], 0.00017 µM	1.08
[3], 0.00051 µM	1.07
[3], 0.00152 µM	1.07
[3], 0.00457 µM	1.04
[3], 0.01372 µM	1.047
[3], 0.04115 µM	1.071
[3], 0.1235 µM	1.05
[3], 0.3704 µM	1.06
[3], 1.111 µM	0.9757
[3], 3.333 µM	0.841
[3], 10 µM	0.746
[4], 0.00017 µM	1.1
[4], 0.00051 µM	1.09
[4], 0.00152 µM	1.104
[4], 0.00457 µM	1.1
[4], 0.01372 µM	1.08
[4], 0.04115 µM	1.09
[4], 0.1235 µM	1.07
[4], 0.3704 µM	1.04
[4], 1.111 µM	0.949
[4], 3.333 µM	0.857
[4], 10 µM	0.809
[5], 0.00017 µM	0.992
[5], 0.00051 µM	0.997
[5], 0.00152 µM	1
[5], 0.00457 µM	1.01
[5], 0.01372 µM	0.996
[5], 0.04115 µM	1.01
[5], 0.1235 µM	1.01
[5], 0.3704 µM	0.981
[5], 1.111 µM	1.02
[5], 3.333 µM	1.02
[5], 10 µM	1.04
[6], 0.00017 µM	1.14
[6], 0.00051 µM	1.14
[6], 0.00152 µM	1.11
[6], 0.00457 µM	1.11
[6], 0.01372 µM	1.12
[6], 0.04115 µM	1.14
[6], 0.1235 µM	1.14
[6], 0.3704 µM	1.11
[6], 1.111 µM	1.15
[6], 3.333 µM	1.37
[6], 10 µM	1.365
[7], 0.00017 µM	1.08
[7], 0.00051 µM	1.07
[7], 0.00152 µM	1.08
[7], 0.00457 µM	1.1
[7], 0.01372 µM	1.1
[7], 0.04115 µM	1.09
[7], 0.1235 µM	1.1
[7], 0.3704 µM	1.1
[7], 1.111 µM	1.12
[7], 3.333 µM	1.1
[7], 10 µM	0.978
[8], 0.00017 µM	1.04
[8], 0.00051 µM	1.016
[8], 0.00152 µM	0.999
[8], 0.00457 µM	0.9983
[8], 0.01372 µM	0.971
[8], 0.04115 µM	0.989
[8], 0.1235 µM	0.959
[8], 0.3704 µM	0.983
[8], 1.111 µM	1.01
[8], 3.333 µM	0.96
[8], 10 µM	0.929
[9], 0.00017 µM	1.08
[9], 0.00051 µM	1.1
[9], 0.00152 µM	1.07
[9], 0.00457 µM	1.04
[9], 0.01372 µM	1.05
[9], 0.04115 µM	1.05
[9], 0.1235 µM	1.09
[9], 0.3704 µM	1.06
[9], 1.111 µM	1.13
[9], 3.333 µM	1.21
[9], 10 µM	1.31
[10], 0.00017 µM	1.06
[10], 0.00051 µM	1.09
[10], 0.00152 µM	1.07
[10], 0.00457 µM	1.07
[10], 0.01372 µM	1.05
[10], 0.04115 µM	1.05
[10], 0.1235 µM	1.01
[10], 0.3704 µM	1.02
[10], 1.111 µM	1.06
[10], 3.333 µM	1.13
[10], 10 µM	1.15
[11], 0.00017 µM	1.17
[11], 0.00051 µM	1.18
[11], 0.00152 µM	1.22
[11], 0.00457 µM	1.18
[11], 0.01372 µM	1.2
[11], 0.04115 µM	1.17
[11], 0.1235 µM	1.17
[11], 0.3704 µM	1.18
[11], 1.111 µM	1.11
[11], 3.333 µM	0.956
[11], 10 µM	0.944
[12], 0.00017 µM	1.12
[12], 0.00051 µM	1.13
[12], 0.00152 µM	1.12
[12], 0.00457 µM	1.131
[12], 0.01372 µM	1.14
[12], 0.04115 µM	1.12
[12], 0.1235 µM	1.13
[12], 0.3704 µM	1.12
[12], 1.111 µM	1.11
[12], 3.333 µM	1.1
[12], 10 µM	1.1
